Laboratory results: article PMC2993163 (Structure (London, England : 1993), 2009)

Target: T1, BdRppH (Bdellovibrio bacteriovorus, UniProt Q6MPX4)
T1 sequence (Q6MPX4 1-153): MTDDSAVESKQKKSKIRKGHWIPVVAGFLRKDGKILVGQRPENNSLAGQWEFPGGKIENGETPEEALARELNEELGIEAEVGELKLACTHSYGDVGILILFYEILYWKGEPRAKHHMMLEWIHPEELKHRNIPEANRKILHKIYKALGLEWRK
Assay: X-ray crystal structure
Type: binding
Conditions: deposited complex; not described in text

`Nc1nc2c(ncn2[C@H]2C[C@H](O)[C@@H](COP(=O)(O)OP(=O)(O)OP(=O)(O)O)O2)c(=O)[nH]1` [dGTP] was tested, and the X-ray crystal structure was “RNA pyrophosphohydrolase in complex with dGTP”.
